The assay addresses T1, hMATE1 (Homo sapiens, UniProt Q96FL8).
T1 construct: expressed in transfected cells; host or cells: HEK-293 (293) cells, pEBTetD plasmid, doxycycline-induced
T1 sequence (Q96FL8 1-570): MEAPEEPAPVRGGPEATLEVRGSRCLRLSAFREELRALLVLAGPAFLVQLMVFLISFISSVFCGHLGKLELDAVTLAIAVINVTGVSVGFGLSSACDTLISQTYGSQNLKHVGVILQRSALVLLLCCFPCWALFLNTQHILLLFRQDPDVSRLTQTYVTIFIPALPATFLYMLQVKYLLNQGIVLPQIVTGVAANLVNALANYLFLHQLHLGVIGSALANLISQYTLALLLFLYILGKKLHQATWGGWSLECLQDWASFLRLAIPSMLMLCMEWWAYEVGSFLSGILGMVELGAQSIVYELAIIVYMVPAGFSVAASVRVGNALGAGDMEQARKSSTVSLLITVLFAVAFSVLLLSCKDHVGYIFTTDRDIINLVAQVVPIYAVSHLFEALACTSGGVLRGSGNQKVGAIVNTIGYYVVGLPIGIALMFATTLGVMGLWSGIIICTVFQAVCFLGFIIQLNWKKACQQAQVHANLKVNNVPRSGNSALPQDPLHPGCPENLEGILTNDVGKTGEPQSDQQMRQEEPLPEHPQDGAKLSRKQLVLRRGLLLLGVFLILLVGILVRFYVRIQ
The assay can be described thus: Inhibition of hMATE1-mediated MPP+ uptake, stably transfected 293 cells. Format: cell-based. To be noted: substrate 3 µM MPP+, median (95% CI). An excerpt: We characterized the inhibitory potential of iohexol on major drug transporters recommended by regulatory agencies, which were previously assessed in a clinical transporter phenotyping cocktail study. These transporters include hOAT1, hOAT3, hOCT1, hOCT2, hMATE1, hMATE2K, human organic anion transporter polypeptides (hOATP)1B1, hOATP1B3, and human multidrug resistance protein (hMDR)1. Additionally, we investigated whether iohexol is a substrate for any of the renal transporters among these, including hOAT1/3, hOCT1/2, and hMATE1/2K. Cell‐based uptake assays were used to assess the activities of hOAT1/3, hOCT1/2, hMATE1/2K, and hOATP1B1/1B3. Inside‐out membrane vesicle uptake assays were used to evaluate the activity of hMDR1.
To determine the maximal inhibitory potential of iohexol, intracellular accumulation of a standard substrate was measured with and without the clinically relevant highest concentrations of iohexol. Control inhibitors were tested in each experiment.
In all subsequent in vitro studies, control experiments were conducted to validate the results. These included positive controls for substrates and inhibitors, as well as cells either without transporter expression or transfected with an empty vector, and control vesicles. Each condition, including cells or vesicles with the transporter and their respective controls, was analyzed in at least three replicates. For detailed information on materials, methods, and data analysis techniques used, refer to the Supporting Information. […]
R version 4.2.1 (R Foundation for Statistical Computing, Vienna, Austria) was used for statistical evaluations and data visualization. The data analysis approach for the in vitro study was detailed by Hsin CH et al..^1 In brief, for transport assays, the initial uptake rate was calculated by normalizing the substrate concentration to both the protein concentration and the incubation time for each dish or well. The transporter-mediated uptake rate (net uptake) was determined by performing an element-wise subtraction of uptake rates from different conditions. […]

With `CC(=O)N(CC(O)CO)c1c(I)c(C(=O)NCC(O)CO)c(I)c(C(=O)NCC(O)CO)c1I` (stereo not drawn) [iohexol], where the note is “20 mM iohexol”, the “Inhibitory effect (% reduction of specific activity)” value is “no notable inhibitory effects”. Besides, the inhibition at 1000 µM (HEK293, 1 mM iohexol, read-out: Inhibitory effect (% reduction of specific activity)) stood at 5.4%. In addition, for the setting “HEK293, 20 mM iohexol, read-out: Inhibitory effect (% reduction of specific activity)”, the inhibition at 20000 µM stood at 12%.
